Experiment [1] has as its system NCI-N87 cells. Briefly: AnnexinV/PI staining apoptosis, NCI-N87. It is filed as cell-based. Conditions: NCI-N87, 48 hours; Compound 31 0.3 μM, 5-FU 3 μM. The method, then: (§1) The inventors chose to combine Compound 31 with one of the most common chemotherapeutic drugs in clinic, 5-fluorouracil (5-FU). In order to investigate the effect and the potential mechanisms of Compound 31 and 5-FU on the growth of gastric cancer cells, the inventors used the AnnexinV/PI staining to detect the apoptosis of two gastric cancer cells, AGS and NCI-N87, 48 hours after the treatment with Compound 31 (0.3 μM), 5-FU (3 μM), and the combination at specified concentrations. […] In NCI-N87 cells, the combination group also achieved a higher apoptosis rate than the mono therapy groups, Compound 31 or 5-FU as a single agent leading to apoptosis rates of 24% or 18% while the combination group reaching an apoptosis rate of 46% (FIG. 29(a)).

The test system of experiment [2] is AGS cells. Nature of the experiment: AnnexinV/PI staining apoptosis, AGS. The format is cell-based. The conditions noted are these: 48 hours, Compound 31 0.3 μM, 5-FU 3 μM. How it is done: as §1
Experiment [3] concerns NCI-N87 xenograft. Nature of the experiment: NCI-N87 xenograft model, Compound 15 with 5-FU. Conditions: Compound 15 50 mg/kg qd 10 days; 5-FU 25 mg/kg once a week for two weeks.
Experiment [4] deals with SCLC patient-derived xenograft LU5250. Briefly: LU5250 SCLC patient-derived xenograft. The conditions noted are these: for T/C (%) @ day 21: doses as Table 3; for RTV @day 21: mean ± SEM, Compound 15 50 mg/kg i.v. BIW, Irinotecan 10 mg/kg i.p. Q4D, Paclitaxel 10 mg/kg i.v. Q4D. It is filed as in vivo, female NOD.SCID mice. The method, then: (§2) The therapeutic efficacy of compound 15 alone and its multiple combinations in the treatment of subcutaneous HuPrime® Lung cancer xenograft model LU5250 and LU5188 in female NOD.SCID mice was evaluated.
(§3) Either LU5250 or LU5188 tumor mass with rough size of 3×3×3 mm^3 were inoculated into female NOD.SCID mice and the day of randomization was denoted as day 1. The treatment was initiated on day 1 when tumors approximated a mean volume 136 mm^3 of LU5250 and 155 mm^3 of LU5188, respectively. There were 6 groups enrolled in each model eventually. See Table 3 for the mode of administration and doses. Both models were taken down on day 21.
On the technique in general: Xenograft models place foreign cells or tissue in a host animal.

The test system of experiment [5] is SCLC patient-derived xenograft LU5188. Nature of the experiment: LU5188 SCLC patient-derived xenograft. Conditions: for T/C (%) @ day 21: doses as Table 3; for RTV @day 21: mean ± SEM, Compound 15 50 mg/kg i.v. BIW, Irinotecan 10 mg/kg i.p. Q4D, Paclitaxel 10 mg/kg i.v. Q4D. It is filed as in vivo, female NOD.SCID mice. The method, then:
as §2, §3

The test system of experiment [6] is subcutaneous NCI-H146 lung cancer xenograft. Briefly: NCI-H146 lung cancer xenograft model (Example 8). The format is in vivo, female SCID mice. The conditions noted are these: for RTV @day 21: Compound 15 20 mg/kg i.v. BIW, Irinotecan 5 mg/kg i.p. QW, Paclitaxel 10 mg/kg i.v. QW, Cisplatin 1 mg/kg i.p. Q4D; for mRECIST_best: best response during the treatment, PR partial response, CR complete response, SD stable disease, PD progressive disease; for T/C (%) @ day 21: doses as Table 6; for mRECIST_last: response on the last day of treatment, PR, CR, SD, PD. How it is done: The therapeutic efficacy of compound 15 alone and in multiple combinations in the treatment of subcutaneous NCI-H146 lung cancer xenograft model was evaluated.
1×10^7 NCI-H146 tumor cells were pre-treated in 0.1 mL of phosphate buffer and Matrigel (7:3) and inoculated into female SCID mice. The day of randomization was denoted as day 1. The treatment was initiated on day 1. The study was conducted in 8 groups of mice. See Table 6 for the mode of administration and doses. The entire study was taken down on day 21. The study was conducted in 40 mice. All the animals were randomized into 8 experimental groups.

The test system of experiment [7] is human SW620 cell line colon cancer xenograft. Briefly: SW620 colon cancer xenograft model. The format is in vivo, mice. The conditions noted are these: single agents: Compound 15 100 mg/kg; irinotecan 50 mg/kg.
Procedure: (§4) Subcutaneous xenograft tumor model of human cancer was established in immunodeficient mouse by cell inoculation: tumor cells in logarithmic growth phase were collected, counted, and then re-suspended in 1×PBS. The concentration of the cell suspension was adjusted to 2.5-5×10^7/mL. Tumor cells were inoculated subcutaneously in the right back of the immunized normal mouse with a 1 mL syringe (4 gauge needle) at 5-10×10^6/0.2 mL/mouse.
(§5) Animal weight and tumor size were measured twice a week during the study. The animals were checked daily for morbility and etc. […] Mortality and clinical signs observed during the study were recorded in the raw data. […]
(§6) Tumor volume (TV) was calculated as: TV=a×b^2/2 wherein a and b represent the measured length and width of tumor, respectively.
(§7) Relative tumor volume (RTV) was calculated as: RTV=Vt/V1 wherein V1 was the tumor volume on the first day of dosing, and Vt was the tumor volume measured on day t after dosing.
(§8) Relative tumor proliferation rate T/C (%), as an indication of anti-tumor effectiveness, was calculated as: Relative tumor proliferation rate T/C (%)=(TRTV/CRTV)×100%, wherein TRTV was RTV in treatment group, and CRTV was RTV in vehicle control group. […]
The test system of experiment [8] is human MGC80-3 cell line gastric cancer xenograft. Nature of the experiment: MGC80-3 gastric cancer xenograft model.
Procedure: as §4
Animal weight and tumor size were measured twice a week during the study. The animals were checked daily for morbility and etc. At the time of routine monitoring, the animal were checked for any effects of tumor growth and treatments on behaviors such as mobility, food and water consumption, body weight gain/loss, eyes, hairing and any other abnormalities. Mortality and clinical signs observed during the study were recorded in the raw data. The dosing of the drugs and the measurement of mouse weight and tumor volume were all conducted in a laminar flow cabinet. According to requirements of the study protocol, plasma and tumor tissue were collected, weighed and photographed at the end of last dosing. Plasma and tumor samples were frozen at −80° C. for later use.
as §6, §7
Relative tumor proliferation rate T/C (%), as an indication of anti-tumor effectiveness, was calculated as: Relative tumor proliferation rate T/C (%)=(TRTV/CRTV)×100%, wherein TRTV was RTV in treatment group, and CRTV was RTV in vehicle control group.
Tumor remission rate (%) was calculated by dividing the number of tumor bearing mice that show SD (stable disease), PR (partial regression) and CR (complete regression) after treatment by the total number of mice in the group×100%. Change of body weight (%)=(measured body weight−body weight at randomization)/body weight at randomization×100%.
Experiment [9] concerns human PC3 cell line prostate cancer xenograft. Nature of the experiment: PC3 prostate cancer xenograft model. The conditions noted are these: Compound 15 100 mg/kg; docetaxel 8 mg/kg.
Procedure: as §4, §5, §6, §7, §8
[10] abbreviates: FIG. 6: Compound 15 100 mg/kg, docetaxel 12 mg/kg, cisplatin 3 mg/kg.

The results in this text go back to patent US11491168B2, “Combination of Bcl-2/Bcl-xL inhibitors and chemotherapeutic agent and use thereof” (ASCENTAGE PHARMA (SUZHOU) CO., LTD., priority 2019, dated 2022).

Where “and” joins values, the source holds several entries; their conditions need not be identical. Equal entries are not always repeated.

On to `O=c1[nH]cc(F)c(=O)[nH]1` [Compound 5-FU, 5-fluorouracil, reference compound], for which the apoptosis rate in experiment [1] was 18%; in [2], approximately 15%. Moreover, the “mouse tumor volume upon the end point” value in experiment [3] was found to be 2200 mm^3.
For `CCc1c2c(nc3ccc(OC(=O)N4CCC(N5CCCCC5)CC4)cc13)-c1cc3c(c(=O)n1C2)COC(=O)[C@]3(O)CC` [Irinotecan, irinotecan], in experiment [4], the “T/C (%) @ day 21” value worked out at 26.9% and the “RTV @day 21” value came to 1.92 ± 0.24. In addition, in [5], the “T/C (%) @ day 21” value was 61.8% and the “RTV @day 21” value was determined as 8.41 ± 2.49. In addition, in [6], the “RTV @day 21” value is 1.0 ± 0.2; the mRECIST_best is 3/5 PR and 2/5 SD; the “T/C (%) @ day 21” value turned out to be 34.4%; the mRECIST_last is 1/5 PR, and 3/5 SD, and 1/5 PD. Also, in experiment [7], the “T/C (%)” value was 29.9%.
With `CC(=O)O[C@H]1C(=O)[C@@]2(C)[C@H]([C@H](OC(=O)c3ccccc3)[C@]3(O)C[C@H](OC(=O)[C@H](O)[C@@H](NC(=O)c4ccccc4)c4ccccc4)C(C)=C1C3(C)C)[C@]1(OC(C)=O)CO[C@@H]1C[C@@H]2O` [Paclitaxel, paclitaxel], in experiment [4], the “T/C (%) @ day 21” value is 32.6% and the “RTV @day 21” value was determined as 2.33 ± 0.13. Further, in experiment [5], the “T/C (%) @ day 21” value was determined as 151.1% and the “RTV @day 21” value is on record as 20.55 ± 3.20. For the same compound, in experiment [6], the “RTV @day 21” value is on record as 1.4 ± 0.4; the mRECIST_best is 3/5 PR, and 2/5 SD; the “T/C (%) @ day 21” value stood at 48.4%; the mRECIST_last was 3/5 SD, and 2/5 PD.
With `N.N.[Cl][Pt][Cl]` [cisplatin], in experiment [6], the “RTV @day 21” value is given as 2.6 ± 0.2; the mRECIST_best was 2/5 SD, and 3/5 PD; the “T/C (%) @ day 21” value turned out to be 90.2%; the mRECIST_last is recorded as 5/5 PD. Also, the “T/C (%)” value in experiment [8] (setting [10]) came to 65.0%.
With `CC(=O)O[C@@]12CO[C@@H]1C[C@H](O)[C@@]1(C)C(=O)[C@H](O)C3=C(C)[C@@H](OC(=O)[C@H](O)[C@@H](NC(=O)OC(C)(C)C)c4ccccc4)C[C@@](O)([C@@H](OC(=O)c4ccccc4)[C@H]21)C3(C)C` [docetaxel], the “T/C (%)” value is listed as 72.4% in experiment [9]; 54.5% in experiment [8] (FIG. 5: Compound 15 100 mg/kg, docetaxel 8 mg/kg); 39.0% in experiment [8] (setting [10]).
